Data published in ChEMBL document CHEMBL1201862, “PubChem BioAssay data set” (2004).
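Five concentrations, 48 hours, 96-well plates. GI50 marks 50% less growth.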 Active and inactive are the calls of the source. No stated cut-off is given here; in the data, active = GI50 up to about 1.1 µM and inactive = higher.

Key:
Experiment in all cases: NCI anticancer screen, dose series, 48 h
[1] = system: HT-29
[2] = system: SK-OV-3
[3] = system: Hs-578T
[4] = system: NCI-H460
[5] = system: CAKI-1
[6] = system: MDA-MB-435
[7] = system: NCI-H226
[8] = system: U-251
[9] = system: SK-MEL-28
[10] = system: RXF 393
[11] = system: KM12
[12] = system: NCI/ADR-RES
[13] = system: MDA-N
[14] = system: SNB-75
[15] = system: A498
[16] = system: SR
[17] = system: HOP-62
[18] = system: UACC-62
[19] = system: MCF7
[20] = system: HOP-92
[21] = system: LOX IMVI
[22] = system: NCI-H23
[23] = system: OVCAR-4
[24] = system: MOLT-4
[25] = system: SN12C
[26] = system: CCRF-CEM
[27] = system: OVCAR-3
[28] = system: DU-145
[29] = system: UACC-257
[30] = system: SK-MEL-2
[31] = system: HCC 2998
[32] = system: SNB-19
[33] = system: HCT-116
[34] = system: EKVX
[35] = system: K562
[36] = system: ACHN
[37] = system: PC-3
[38] = system: M14
[39] = system: IGROV-1
[40] = system: RPMI-8226
[41] = system: T47D
[42] = system: HL-60
[43] = system: COLO 205
[44] = system: UO-31
[45] = system: TK-10
[46] = system: OVCAR-8
[47] = system: Malme-3M
[48] = system: SF-539
[49] = system: SF-295
[50] = system: SF-268
[51] = system: HCT-15
[52] = system: SK-MEL-5
[53] = system: 786-0
[54] = system: NCI-H522
[55] = system: A549
[56] = system: BT-549
[57] = system: SW-620
[58] = system: OVCAR-5
[59] = system: MDA-MB-231

## COc1cc(C2c3cc4c(cc3OC(NNC(N)=O)C2C)OCO4)cc(OC)c1OC (stereo not drawn)
[1]
  GI50: 0.145 µM (active)
[2]
  GI50: 1.36 µM (inactive)
[3]
  GI50: 0.125 µM (active)
[4]
  GI50: 0.179 µM (active)
[5]
  GI50: 0.634 µM (active)
[6]
  GI50: 0.0586 µM (active)
[7]
  GI50: 0.205 µM (active)
[8]
  GI50: 0.126 µM (active)
[9]
  GI50: 1.12 µM (inactive)
[10]
  GI50: 0.525 µM (active)
[11]
  GI50: 0.107 µM (active)
[12]
  GI50: 4.72 µM (inactive)
[13]
  GI50: 0.0362 µM (active)
[14]
  GI50: 0.18 µM (active)
[15]
  GI50: 0.0233 µM (active)
[16]
  GI50: 0.0826 µM (active)
[17]
  GI50: 0.118 µM (active)
[18]
  GI50: 0.179 µM (active)
[19]
  GI50: 0.136 µM (active)
[20]
  GI50: 0.0675 µM (active)
[21]
  GI50: 0.145 µM (active)
[22]
  GI50: 0.394 µM (active)
[23]
  GI50: 11.8 µM (inactive)
[24]
  GI50: 0.235 µM (active)
[25]
  GI50: 0.404 µM (active)
[26]
  GI50: 0.109 µM (active)
[27]
  GI50: 0.0902 µM (active)
[28]
  GI50: 0.585 µM (active)
[29]
  GI50: 0.603 µM (active)
[30]
  GI50: 1.26 µM (inactive)
[31]
  GI50: 0.373 µM (active)
[32]
  GI50: 0.452 µM (active)
[33]
  GI50: 0.13 µM (active)
[34]
  GI50: 2.35 µM (inactive)
[35]
  GI50: 0.0817 µM (active)
[36]
  GI50: 0.557 µM (active)
[37]
  GI50: 0.183 µM (active)
[38]
  GI50: 0.115 µM (active)
[39]
  GI50: 0.427 µM (active)
[40]
  GI50: 0.167 µM (active)
[41]
  GI50: > 66.4 µM (inactive)
[42]
  GI50: 0.11 µM (active)
[43]
  GI50: 0.0982 µM (active)
[44]
  GI50: 1.07 µM (active)
[45]
  GI50: 34.7 µM (inactive)
[46]
  GI50: 0.356 µM (active)
[47]
  GI50: 0.828 µM (active)
[48]
  GI50: 0.0689 µM (active)
[49]
  GI50: 0.114 µM (active)
[50]
  GI50: 0.518 µM (active)
[51]
  GI50: 0.274 µM
[52]
  GI50: 0.123 µM (active)
[53]
  GI50: 0.185 µM (active)
[54]
  GI50: 0.104 µM (active)
[55]
  GI50: 0.276 µM (active)
[56]
  GI50: 2.03 µM (inactive)
[57]
  GI50: 0.142 µM (active)

## CC(=O)[C@@]1(c2ccccc2)CC2(CCN(C)CC2)O[C@H]1C
[1]
  GI50: > 100 µM (inactive)
[2]
  GI50: > 100 µM (inactive)
[4]
  GI50: > 100 µM (inactive)
[5]
  GI50: > 100 µM (inactive)
[6]
  GI50: > 100 µM (inactive)
[7]
  GI50: > 100 µM (inactive)
[8]
  GI50: > 100 µM (inactive)
[9]
  GI50: > 100 µM (inactive)
[10]
  GI50: > 100 µM (inactive)
[11]
  GI50: > 100 µM (inactive)
[12]
  GI50: > 100 µM (inactive)
[13]
  GI50: > 100 µM (inactive)
[58]
  GI50: > 100 µM (inactive)
[14]
  GI50: > 100 µM (inactive)
[15]
  GI50: > 100 µM (inactive)
[17]
  GI50: > 100 µM (inactive)
[20]
  GI50: > 100 µM (inactive)
[21]
  GI50: > 100 µM (inactive)
[22]
  GI50: > 100 µM (inactive)
[23]
  GI50: > 100 µM (inactive)
[24]
  GI50: > 100 µM (inactive)
[25]
  GI50: > 100 µM (inactive)
[27]
  GI50: > 100 µM (inactive)
[28]
  GI50: > 100 µM (inactive)
[29]
  GI50: > 100 µM (inactive)
[32]
  GI50: > 100 µM (inactive)
[33]
  GI50: > 100 µM (inactive)
[34]
  GI50: > 100 µM (inactive)
[35]
  GI50: > 100 µM (inactive)
[36]
  GI50: > 100 µM (inactive)
[38]
  GI50: > 100 µM (inactive)
[39]
  GI50: > 100 µM (inactive)
[40]
  GI50: > 100 µM (inactive)
[41]
  GI50: > 100 µM (inactive)
[43]
  GI50: > 100 µM (inactive)
[44]
  GI50: > 100 µM (inactive)
[45]
  GI50: > 100 µM (inactive)
[46]
  GI50: > 100 µM (inactive)
[47]
  GI50: > 100 µM (inactive)
[48]
  GI50: > 100 µM (inactive)
[49]
  GI50: > 100 µM (inactive)
[50]
  GI50: > 100 µM (inactive)
[51]
  GI50: > 100 µM
[52]
  GI50: > 100 µM (inactive)
[53]
  GI50: > 100 µM (inactive)
[54]
  GI50: > 100 µM (inactive)
[59]
  GI50: > 100 µM (inactive)
[55]
  GI50: > 100 µM (inactive)
[56]
  GI50: > 100 µM (inactive)
[57]
  GI50: > 100 µM (inactive)

## CC(C)Oc1cccc(N2C(n3ccnc3)=Nc3ccncc3S2(=O)=O)c1
[1]
  GI50: 15.9 µM (inactive)
[2]
  GI50: 17.5 µM (inactive)
[3]
  GI50: 19 µM (inactive)
[4]
  GI50: 18.8 µM (inactive)
[5]
  GI50: 13.7 µM (inactive)
[6]
  GI50: 11.9 µM (inactive)
[7]
  GI50: 21.7 µM (inactive)
[8]
  GI50: 15.4 µM (inactive)
[9]
  GI50: 17.9 µM (inactive)
[10]
  GI50: 14.7 µM (inactive)
[11]
  GI50: 23.2 µM (inactive)
[12]
  GI50: 21 µM (inactive)
[13]
  GI50: 12.8 µM (inactive)
[58]
  GI50: 13.8 µM (inactive)
[14]
  GI50: 18.7 µM (inactive)
[15]
  GI50: 17.8 µM (inactive)
[16]
  GI50: 3.78 µM (inactive)
[17]
  GI50: 18.3 µM (inactive)
[18]
  GI50: 15.7 µM (inactive)
[19]
  GI50: 10.1 µM (inactive)
[20]
  GI50: 12.7 µM (inactive)
[21]
  GI50: 16.2 µM (inactive)
[22]
  GI50: 11.5 µM (inactive)
[23]
  GI50: 14 µM (inactive)
[24]
  GI50: 4.3 µM (inactive)
[25]
  GI50: 15.5 µM (inactive)
[27]
  GI50: 9.35 µM (inactive)
[28]
  GI50: 12.2 µM (inactive)
[29]
  GI50: 16.4 µM (inactive)
[30]
  GI50: 13.1 µM (inactive)
[31]
  GI50: 16.9 µM (inactive)
[32]
  GI50: 20.5 µM (inactive)
[33]
  GI50: 13.6 µM (inactive)
[34]
  GI50: 16.2 µM (inactive)
[35]
  GI50: 10.2 µM (inactive)
[36]
  GI50: 10 µM (inactive)
[37]
  GI50: 10.8 µM (inactive)
[38]
  GI50: 13.6 µM (inactive)
[39]
  GI50: 14.6 µM (inactive)
[40]
  GI50: 3 µM (inactive)
[41]
  GI50: 13.1 µM (inactive)
[43]
  GI50: 10.2 µM (inactive)
[44]
  GI50: 21.6 µM (inactive)
[45]
  GI50: 12.1 µM (inactive)
[46]
  GI50: 14.5 µM (inactive)
[47]
  GI50: 13.5 µM (inactive)
[48]
  GI50: 6.31 µM (inactive)
[49]
  GI50: 34.9 µM (inactive)
[50]
  GI50: 16.3 µM (inactive)
[51]
  GI50: 13.6 µM
[52]
  GI50: 13.2 µM (inactive)
[53]
  GI50: 10.4 µM (inactive)
[54]
  GI50: 9.44 µM (inactive)
[55]
  GI50: 20.4 µM (inactive)
[56]
  GI50: 15.5 µM (inactive)
[57]
  GI50: 12.6 µM (inactive)
